# Laboratory results from patent US9586914B2, “Modulators of C3a receptors” (THE UNIVERSITY OF QUEENSLAND, priority 2011, dated 2017).
# Where two headings read alike, the source gives them in different places.
# Assays:
# C3a receptor (C3aR) = target: T1, C3a receptor (C3aR) (Homo sapiens, UniProt Q16581); assay: Competitive binding with [^125I]-C3a in HMDM; conditions: for remaining activity at 20 µM: 1 h, read-out: %[^125I]-C3a binding
# T1 construct: peripheral blood mononuclear cells were isolated from buffy coat (obtained from Australian Red Cross Blood Service, Kelvin Grove); endogenous in cells; host or cells: primary human monocyte-derived macrophages (HMDM) differentiated from CD14+ monocytes of donor buffy coat
# T1 sequence (Q16581 1-482): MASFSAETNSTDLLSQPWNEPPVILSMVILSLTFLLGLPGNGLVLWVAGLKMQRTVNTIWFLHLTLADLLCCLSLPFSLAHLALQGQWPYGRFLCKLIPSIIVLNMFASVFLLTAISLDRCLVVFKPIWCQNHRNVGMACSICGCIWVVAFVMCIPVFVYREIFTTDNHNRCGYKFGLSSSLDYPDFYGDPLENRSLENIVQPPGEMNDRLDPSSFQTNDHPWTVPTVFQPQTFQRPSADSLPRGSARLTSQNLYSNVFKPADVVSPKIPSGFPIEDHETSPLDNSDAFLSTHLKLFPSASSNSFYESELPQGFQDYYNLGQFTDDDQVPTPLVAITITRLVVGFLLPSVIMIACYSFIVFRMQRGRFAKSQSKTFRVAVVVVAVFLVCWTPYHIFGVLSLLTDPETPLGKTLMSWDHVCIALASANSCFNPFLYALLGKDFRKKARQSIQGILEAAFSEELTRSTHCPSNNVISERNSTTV
# Text: For HMDM, peripheral blood mononuclear cells were isolated from buffy coat (obtained from Australian Red Cross Blood Service, Kelvin Grove) using Ficoll-paque density centrifugation (GE Healthcare Bio-Science, Uppsala, Sweden). CD^14+ monocytes were positively selected using CD^14+ MACS magnetic beads (Miltenyi Biotech, Auburn, Calif., USA). […] Cells were harvested by gentle scraping in saline solution and replated for use on Day 7. […] Unbound radioactivity was removed by filtration through glass microfiber filters GF/B (Whatman Iner. […] The filter was washed 3 times with cold buffer (50 mM Tris-HCl) pH 7.4. […] The −log IC50 for each compound was calculated for separate experiments and express as an arithmetic mean standard error (SE). IC50 values were expressed as a geometric mean.
# C3aR = target: T2, C3aR (Homo sapiens, UniProt Q16581); assay: Calcium mobilization assay in HMDM (agonist/antagonist activity); type: cell-based; conditions: for IC50: read-out: Antagonist Activity Ca^2+ IC50; for Emax at 10 µM: read-out: % agonist
# T2 construct: peripheral blood mononuclear cells were isolated from buffy coat (obtained from Australian Red Cross Blood Service, Kelvin Grove); endogenous in cells; host or cells: primary human monocyte-derived macrophages (HMDM) differentiated from CD14+ monocytes of donor buffy coat
# T2 sequence (Q16581 1-482): T1 sequence (Q16581 1-482)
# Procedure: Harvested HMDM cells were washed with 0.9% NaCl solution by centrifugation at 2500 rpm for 5 min, followed by resuspension of the cell pellet with complete media. Cells were seeded at 5×10^4 cells/well in a 96-well black-wall, clear bottom plate (DKSH, Zurich), and left overnight to adhere at 37° C. On the day of the experiment, supernatant was removed and cells were incubated in dye loading buffer (Hank's Balanced Salt Solution (HBSS) with 4 μM Fluo-3, 25 μL pluronic acid, 1% fetal bovine serum (FBS) and 2.5 mM probenecid) for one hour at 37° C. Cells were then washed twice with HBSS and transferred to a Fluorostar spectrofluorimeter (BMG, Durham N.C.) for oxazole compound injection and fluorescence measurements.
# Various compounds were examined in the calcium mobilization assay for agonist or antagonist activity compared to hC3a and to the known antagonist SB290157.
# HMDMs were seeded into black-wall, clear bottom 96-well plates (Corning Incorporated, NY) at 50,000 cells/well and left to incubate at 37° C. with 5% CO2 overnight for cells to adhere. The medium was removed before being washed with the assay buffer (1×HBSS, 20 mM HEPES, 2.5 mM probenecid, pH 7.4). To each well was added 100 μL of dye-loading buffer made up of 12 mL calcium buffer, 1% FBS, 25 μL of Fluo-3 dye (final concentration of 4 μM) and 25 μL of 20% pluronic acid. The plate was covered in aluminium foil to protect the light-sensitive dye and left to incubate at 37° C. for 1 h. The dye-loading buffer was removed before the cells were washed with the assay buffer to remove excess loading dye. To each well was added 50 μL of fresh assay buffer before the plate was loaded into a FLIPR (Fluorescent Imaging Plate Reader) that can inject treatments and measure any calcium release. To generate agonist plots, calcium release was monitored for 300 seconds. To generate antagonist plots, calcium release was recorded for 900 seconds, which at the same time would allow incubation for the antagonists. After the initial incubation period, an agonist would be added and the response was recorded for 300 seconds. Intracellular release of calcium was recorded via fluorescence measurements at wavelength of 485 nm for excitation and 520 nm for emission.
# [1] = Table 8, HMDM, read-out: Receptor Binding Affinity ^125I IC50
# [2] = Table 14, binding affinity for C3aR on HMDM
# [3] = Table 6, competitive binding with [^125I]-C3a, HMDM, read-out: IC50 (converted)
# [4] = Table 9, Ca^2+ mobilization, HMDM, read-out: EC50
# [5] = Table 6, competitive binding with [^125I]-C3a, HMDM
# [6] = Table 9, Ca^2+ mobilization, HMDM
# [7] = Table 14, binding affinity for C3aR on HMDM, read-out: -Log IC50 (converted)
# [8] = Table 6, competitive binding with [^125I]-C3a, HMDM, read-out: pIC50 ± SEM (converted)
# [9] = Table 12, read-out: Receptor Binding Affinity IC50
# [10] = Table 12, read-out: Apparent Agonist Activity EC50
structure (smiles),measurement,setting,value
"N=C(N)NCCC[C@H](NC(=O)c1nc(C(c2ccccc2)c2ccccc2)no1)C(=O)O [Compound 67, 3-Diphenylmethyl-1-oxa-2,4-diazole-5-carboxyl-Arginine-OH]",IC50,C3a receptor (C3aR); [1],0.011 µM
same,-Log IC50,C3a receptor (C3aR); [2],7.9
same,IC50,"C3aR; Table 10, HMDM",1.3 µM
"Cc1nc(C(c2ccccc2)c2ccccc2)n(C)c1C(=O)N[C@@H](CCCNC(=N)N)C(=O)O [Compound 98, 2-Benzhydryl-1,4-Dimethyl imidazole-5-carboxyl-Arginine]",IC50,C3a receptor (C3aR); [3],0.031 µM
same,EC50,C3aR; [4],0.04 µM
"COc1ccccc1CC(=O)N[C@@H](CC(C)C)c1nc(C(=O)N[C@@H](CCCNC(=N)N)C(=O)O)c(C)o1 [Compound 37, 2-Methoxy-phenylacetic acid-Leucine-5-Methyl-Oxazole-Arginine]",remaining activity at 20 µM,C3a receptor (C3aR),43%
same,Emax at 10 µM,C3aR,81%
"Cc1oc([C@H](CC(C)C)NC(=O)c2ccccn2)nc1C(=O)N[C@@H](CCCNC(=N)N)C(=O)O [Compound 29, Picolinic acid-Leucine-5-Methyl-Oxazole-Arginine]",remaining activity at 20 µM,C3a receptor (C3aR),31%
same,Emax at 10 µM,C3aR,77%
"CC[C@H](C)[C@H](NC(=O)C(c1ccccc1)c1ccccc1)c1nc(C(=O)N[C@@H](CCCNC(=N)N)C(=O)O)co1 [Compound 7, Diphenyl Acetic Acid Isoleucine Oxazole Arginine]",pIC50 ± SEM,C3a receptor (C3aR); [5],6.86 ± 0.08
same,IC50,C3a receptor (C3aR); [3],0.137 µM
same,pEC50 ± SEM,C3aR; [6],5.25 ± 0.31
same,EC50,C3aR; [4],5.6 µM
"Cc1oc([C@H](CC(C)C)NC(=O)c2cc3ccccc3[nH]2)nc1C(=O)N[C@@H](CCCNC(=N)N)C(=O)O [Compound 28, Indole-2-carboxylic acid-Leucine-5-Methyl-Oxazole-Arginine]",remaining activity at 20 µM,C3a receptor (C3aR),26%
same,Emax at 10 µM,C3aR,56%
"Cc1oc([C@H](CC(C)C)NS(=O)(=O)c2ccccc2)nc1C(=O)N[C@@H](CCCNC(=N)N)C(=O)O [Compound 40, Phenyl sulfonamide-Leucine-5-Methyl-Oxazole-Arginine]",remaining activity at 20 µM,C3a receptor (C3aR),44%
same,Emax at 10 µM,C3aR,103%
"N=C(N)NCCC[C@H](NC(=O)c1oc(C(c2ccccc2)c2ccccc2)nc1-c1ccccc1)C(=O)O [Compound 66, 2-Diphenylmethyl-4-phenyl oxazole-5-carboxyl-Arg-OH]",IC50,C3a receptor (C3aR); [1],0.123 µM
same,IC50,"C3aR; Table 10, HMDM",2 µM
"N=C(N)NCCC[C@H](NC(=O)c1ccc(C(c2ccccc2)c2ccccc2)s1)C(=O)O [Compound 60, 5-Diphenylmethyl-thiophene-2-carboxyl-Arg-OH]",IC50,C3a receptor (C3aR); [1],0.14 µM
same,IC50,C3a receptor (C3aR); [7],0.0631 µM
same,EC50,"C3aR; Table 10, HMDM, read-out: Agonist Activity EC50",> 100 µM
same,IC50,"C3aR; Table 10, HMDM",0.07 µM
"CC[C@H](C)[C@H](NC(=O)C1CCCc2ccccc21)c1nc(C(=O)N[C@@H](CCCNC(=N)N)C(=O)O)co1 (stereo partly shown) [Compound 21, Tetrahydronapthalene-isoleucine-oxazole-arginine-OH]",pIC50 ± SEM,C3a receptor (C3aR); [5],6.98 ± 0.11
same,IC50,C3a receptor (C3aR); [3],0.104 µM
same,pEC50 ± SEM,C3aR; [6],6.62 ± 0.28
same,EC50,C3aR; [4],0.24 µM
"CC(C)(C)OC(=O)N[C@@H](CC1CCCCC1)c1nc(C(=O)N[C@@H](CCCNC(=N)N)C(=O)O)co1 [Compound 5, Boc-L-Cyclohexylalanine-Oxazole-Arg]",IC50,C3a receptor (C3aR); [3],0.082 µM
same,EC50,C3aR; [4],0.135 µM
"CC[C@H](C)[C@H](NC(=O)c1ccc(OC)cc1OC)c1nc(C(=O)N[C@@H](CCCNC(=N)N)C(=O)O)co1 [Compound 23, 2,4-Dimethoxybenzoic acid-isoleucine-oxazole-arginine-OH]",pIC50 ± SEM,C3a receptor (C3aR); [5],6.06 ± 0.13
same,IC50,C3a receptor (C3aR); [3],0.872 µM
same,pEC50 ± SEM,C3aR; [6],6.07 ± 0.13
same,EC50,C3aR; [4],0.849 µM
"Cc1oc(C(c2ccccc2)c2ccccc2)nc1C(=O)N[C@@H](CCCNC(=N)N)C(=O)O [Compound 61, 2-Diphenylmethyl-5-methyl oxazole-4-carboxyl-Arg-OH]",IC50,C3a receptor (C3aR); [1],0.74 µM
same,-Log IC50,C3a receptor (C3aR); [2],8.0
same,Agonist Activity (in words),"C3aR; Table 10, HMDM",partial agonist
same,IC50,"C3aR; Table 10, HMDM",0.03 µM
"COc1ccc(CCC(=O)N[C@@H](CC(C)C)c2nc(C(=O)N[C@@H](CCCNC(=N)N)C(=O)O)c(C)o2)cc1 [Compound 41, 3-(4-Methoxyphenyl)propionic acid-Leucine-5-Methyl-Oxazole-Arginine]",remaining activity at 20 µM,C3a receptor (C3aR),44%
same,Emax at 10 µM,C3aR,44%
CC[C@H](C)[C@H](NC(=O)c1cncc(Br)c1)c1nc(C(=O)N[C@@H](CCCNC(=N)N)C(=O)O)co1 [Compound 20],pIC50 ± SEM,C3a receptor (C3aR); [5],8.30 ± 0.10
same,IC50,C3a receptor (C3aR); [3],0.005 µM
same,pEC50 ± SEM,C3aR; [6],7.76 ± 0.36
same,EC50,C3aR; [4],0.017 µM
"CC(C)C[C@H](NC(=O)CC(c1ccccc1)c1ccccc1)c1nc(C(=O)N[C@@H](CCCNC(=N)N)C(=O)O)co1 [Compound 19, 3,3-diphenylpropanoic acid-Leucine-Oxazole-Arginine-OH]",IC50,C3a receptor (C3aR); [3],0.754 µM
same,EC50,C3aR; [4],0.744 µM
"N=C(N)NCCC[C@H](NC(=O)c1nnc(C(c2ccccc2)c2ccccc2)o1)C(=O)O [Compound 69, 2-Diphenylmethyl-1-oxa-3,4-diazole-5-carboxyl-Arginine-OH]",IC50,C3a receptor (C3aR); [1],2.58 µM
same,IC50,"C3aR; Table 10, HMDM",24 µM
"Cc1oc([C@H](CC(C)C)NC(=O)c2cc3ccccc3o2)nc1C(=O)N[C@@H](CCCNC(=N)N)C(=O)O [Compound 26, Benzofuran carboxylic acid-Leucine-5-Methyl-Oxazole-Arginine]",remaining activity at 20 µM,C3a receptor (C3aR),19%
same,Emax at 10 µM,C3aR,84%
"Cc1nc(C(c2ccccc2)c2ccccc2)sc1C(=O)N[C@@H](CCCNC(=N)N)C(=O)O [Compound 59, 2-Diphenylmethyl-4-methyl thiazole-5-carboxyl-Arg-OH]",IC50,C3a receptor (C3aR); [3],0.038 µM
same,IC50,C3a receptor (C3aR); [8],0.0912 µM
same,IC50,C3a receptor (C3aR); [1],0.038 µM
same,IC50,C3a receptor (C3aR); [9],0.091 µM
same,IC50,C3a receptor (C3aR); [7],0.0126 µM
same,EC50,C3aR; [4],74.8 µM
same,IC50,"C3aR; Table 10, HMDM",1 µM
same,EC50,C3aR; [10],74.8 µM
"N=C(N)NCCC[C@H](NC(=O)c1coc(C(c2ccccc2)c2ccccc2)n1)C(=O)O [Compound 56, 2-Diphenylmethyl-oxazole-4-carboxyl-Arg-OH]",IC50,C3a receptor (C3aR); [3],0.037 µM
same,IC50,C3a receptor (C3aR); [8],0.0372 µM
same,IC50,C3a receptor (C3aR); [1],0.001 µM
same,IC50,"C3a receptor (C3aR); Table 12, read-out: Receptor Binding Affinity pIC50 ± SE (converted)",0.0372 µM
same,EC50,C3aR; [4],0.0066 µM
same,Agonist Activity (in words),"C3aR; Table 10, HMDM",partial agonist
same,IC50,"C3aR; Table 10, HMDM",0.02 µM
same,EC50,C3aR; [10],0.0066 µM
"Cc1nc(C(c2ccccc2)c2ccccc2)oc1C(=O)N[C@@H](CCCNC(=N)N)C(=O)O [Compound 58, 2-Diphenylmethyl-4-methyl oxazole-5-carboxyl-Arg-OH]",IC50,C3a receptor (C3aR); [3],0.606 µM
same,IC50,C3a receptor (C3aR); [8],0.603 µM
same,IC50,C3a receptor (C3aR); [1],0.012 µM
same,IC50,C3a receptor (C3aR); [9],0.606 µM
same,-Log IC50,C3a receptor (C3aR); [2],7.0
same,IC50,"C3aR; Table 10, HMDM",2.9 µM
same,Apparent Agonist Activity pEC50 ± SE (symbol),C3aR; Table 12,φ (compound showed no agonist activity up to 100 μM.)
"CC[C@H](C)[C@H](NC(=O)c1cccc(OC)c1OC)c1nc(C(=O)N[C@@H](CCCNC(=N)N)C(=O)O)co1 [Compound 22, 2,3-dimethoxybenzoic acid-isoleucine-oxazole-arginine-OH]",pIC50 ± SEM,C3a receptor (C3aR); [5],6.15 ± 0.14
same,IC50,C3a receptor (C3aR); [3],0.712 µM
same,EC50 (nM),C3aR; [6],∞
same,pEC50 ± SEM,C3aR; [6],∞
